Results from ChEMBL document CHEMBL5042510, “Structure-Guided Discovery of Aminoquinazolines as Brain-Penetrant and Selective LRRK2 Inhibitors” (J Med Chem, 2022).

Key:
rat Mdr1a (P-gp) = test: Apparent permeability from apical to basolateral side in rat Mdr1a-transfected pig LLC-PK1 cells at 0.1 to 1 uM measured after 3 hrs by LC/MS/MS analysis; type: ADME, cell-based, Sus scrofa; details: dose 0.1-1 µM
[1] = Intrinsic clearance in rat hepatocytes at 0.3 uM incubated for 90 mins by LC/MS/MS analysis; type: ADME, cell-based, Hepatocyte; details: read-out: CLH
[2] = MRT in Wistar Han rat at 2 mg/kg, iv by LC-MS/MS analysis; type: ADME, organism-based; details: in vivo
mouse Bcrp [3] = test: Efflux ratio of apparent permeability across basolateral to apical over apical to basolateral side in mouse Bcrp-transfected dog MDCK-II cells at 0.1 to 1 uM measured after 3 hrs by LC/MS/MS analysis; type: ADME, cell-based, Canis lupus familiaris; details: dose 0.1-1 µM
Salmonella typhimurium = test: Mutagenicity in Salmonella typhimurium TA100 at 30 to 5000 ug incubated for 48 hrs in presence of liver S9 fraction by AMES test; type: toxicity, organism-based, Salmonella enterica subsp. enterica serovar Typhimurium; details: s9, 48 h, dose 30-5000 µg
[4] = target: Leucine-rich repeat serine/threonine-protein kinase 2 (Homo sapiens) (UniProt Q5S007); test: Ex vivo inhibition of LRRK2 in human PBMC assessed as unbound concentration required for reduction in LRRK2 phosphorylation at Ser935 residue incubated for 90 mins by MSD assay; type: cell-based
[5] = Intrinsic clearance in Beagle dog at 1 mg/kg, iv by LC-MS/MS analysis; type: ADME, organism-based, Canis lupus familiaris; details: in vivo
[6] = Cardiotoxicity in telemetered Wistar Han rat assessed as elevation of systolic blood pressure at 100 mg/kg, po; type: toxicity, organism-based; details: in vivo
[7] = Unbound brain-to-plasma concentration ratio in rat at 10 mg/kg, po qd for 4 days by LC/MS/MS analysis; type: ADME, organism-based; details: brain and plasma (unbound), time 4 day, read-out: K(p,uu,brain)
[8] = Toxicity in rat assessed as clinical signs of toxicity at 40 to 400 mg/kg, po qd administered for 4 days; type: organism-based; details: in vivo, 96 h, dose 40-400 mg/kg, time 4 day
[9] = Toxicity in rat bone marrow at 40 to 400 mg/kg, po qd administered for 4 days by micronucleus assay; type: organism-based; details: in vivo, 96 h, dose 40-400 mg/kg, time 4 day
[10] = Toxicity in rat assessed as body weight loss at 400 mg/kg, po qd administered for 4 days; type: organism-based; details: in vivo, 96 h, time 4 day
[11] = Toxicity in rat assessed as positive tissue transcriptional score at 40 to 400 mg/kg, po qd administered for 4 days; type: organism-based; details: in vivo, 96 h, dose 40-400 mg/kg, time 4 day
[12] = Toxicity in rat assessed as induction of liver injury at 40 to 400 mg/kg, po qd administered for 4 days; type: organism-based; details: in vivo, 96 h, dose 40-400 mg/kg, time 4 day
mouse Bcrp [13] = test: Apparent permeability in mouse Bcrp-transfected dog MDCK-II cells at 0.1 to 1 uM measured after 3 hrs by LC/MS/MS analysis; type: ADME, cell-based, Canis lupus familiaris; details: dose 0.1-1 µM
CYP1A1 = test: Toxicity in rat assessed as fold induction of CYP1A1 transcriptional activity in liver at 10 to 75 mg/kg, po bid administered for 4 days relative to control; type: organism-based; details: dose 10-75 mg/kg, time 4 day, read-out: FC
GSTA5 = test: Toxicity in rat assessed as fold increase in GSTA5 transcriptional activity in liver at 75 mg/kg, po bid administered for 4 days relative to control; type: organism-based; details: time 4 day, read-out: FC
[14] = In vivo inhibition of LRRK2 in CD rat assessed as reduction in phosphorylation at Ser935 residue in striatum at 1 mg/kg, po measured after 2 hrs by MSD assay; type: functional

Chain of Leucine-rich repeat serine/threonine-protein kinase 2 (Homo sapiens) (Q5S007 whole entry): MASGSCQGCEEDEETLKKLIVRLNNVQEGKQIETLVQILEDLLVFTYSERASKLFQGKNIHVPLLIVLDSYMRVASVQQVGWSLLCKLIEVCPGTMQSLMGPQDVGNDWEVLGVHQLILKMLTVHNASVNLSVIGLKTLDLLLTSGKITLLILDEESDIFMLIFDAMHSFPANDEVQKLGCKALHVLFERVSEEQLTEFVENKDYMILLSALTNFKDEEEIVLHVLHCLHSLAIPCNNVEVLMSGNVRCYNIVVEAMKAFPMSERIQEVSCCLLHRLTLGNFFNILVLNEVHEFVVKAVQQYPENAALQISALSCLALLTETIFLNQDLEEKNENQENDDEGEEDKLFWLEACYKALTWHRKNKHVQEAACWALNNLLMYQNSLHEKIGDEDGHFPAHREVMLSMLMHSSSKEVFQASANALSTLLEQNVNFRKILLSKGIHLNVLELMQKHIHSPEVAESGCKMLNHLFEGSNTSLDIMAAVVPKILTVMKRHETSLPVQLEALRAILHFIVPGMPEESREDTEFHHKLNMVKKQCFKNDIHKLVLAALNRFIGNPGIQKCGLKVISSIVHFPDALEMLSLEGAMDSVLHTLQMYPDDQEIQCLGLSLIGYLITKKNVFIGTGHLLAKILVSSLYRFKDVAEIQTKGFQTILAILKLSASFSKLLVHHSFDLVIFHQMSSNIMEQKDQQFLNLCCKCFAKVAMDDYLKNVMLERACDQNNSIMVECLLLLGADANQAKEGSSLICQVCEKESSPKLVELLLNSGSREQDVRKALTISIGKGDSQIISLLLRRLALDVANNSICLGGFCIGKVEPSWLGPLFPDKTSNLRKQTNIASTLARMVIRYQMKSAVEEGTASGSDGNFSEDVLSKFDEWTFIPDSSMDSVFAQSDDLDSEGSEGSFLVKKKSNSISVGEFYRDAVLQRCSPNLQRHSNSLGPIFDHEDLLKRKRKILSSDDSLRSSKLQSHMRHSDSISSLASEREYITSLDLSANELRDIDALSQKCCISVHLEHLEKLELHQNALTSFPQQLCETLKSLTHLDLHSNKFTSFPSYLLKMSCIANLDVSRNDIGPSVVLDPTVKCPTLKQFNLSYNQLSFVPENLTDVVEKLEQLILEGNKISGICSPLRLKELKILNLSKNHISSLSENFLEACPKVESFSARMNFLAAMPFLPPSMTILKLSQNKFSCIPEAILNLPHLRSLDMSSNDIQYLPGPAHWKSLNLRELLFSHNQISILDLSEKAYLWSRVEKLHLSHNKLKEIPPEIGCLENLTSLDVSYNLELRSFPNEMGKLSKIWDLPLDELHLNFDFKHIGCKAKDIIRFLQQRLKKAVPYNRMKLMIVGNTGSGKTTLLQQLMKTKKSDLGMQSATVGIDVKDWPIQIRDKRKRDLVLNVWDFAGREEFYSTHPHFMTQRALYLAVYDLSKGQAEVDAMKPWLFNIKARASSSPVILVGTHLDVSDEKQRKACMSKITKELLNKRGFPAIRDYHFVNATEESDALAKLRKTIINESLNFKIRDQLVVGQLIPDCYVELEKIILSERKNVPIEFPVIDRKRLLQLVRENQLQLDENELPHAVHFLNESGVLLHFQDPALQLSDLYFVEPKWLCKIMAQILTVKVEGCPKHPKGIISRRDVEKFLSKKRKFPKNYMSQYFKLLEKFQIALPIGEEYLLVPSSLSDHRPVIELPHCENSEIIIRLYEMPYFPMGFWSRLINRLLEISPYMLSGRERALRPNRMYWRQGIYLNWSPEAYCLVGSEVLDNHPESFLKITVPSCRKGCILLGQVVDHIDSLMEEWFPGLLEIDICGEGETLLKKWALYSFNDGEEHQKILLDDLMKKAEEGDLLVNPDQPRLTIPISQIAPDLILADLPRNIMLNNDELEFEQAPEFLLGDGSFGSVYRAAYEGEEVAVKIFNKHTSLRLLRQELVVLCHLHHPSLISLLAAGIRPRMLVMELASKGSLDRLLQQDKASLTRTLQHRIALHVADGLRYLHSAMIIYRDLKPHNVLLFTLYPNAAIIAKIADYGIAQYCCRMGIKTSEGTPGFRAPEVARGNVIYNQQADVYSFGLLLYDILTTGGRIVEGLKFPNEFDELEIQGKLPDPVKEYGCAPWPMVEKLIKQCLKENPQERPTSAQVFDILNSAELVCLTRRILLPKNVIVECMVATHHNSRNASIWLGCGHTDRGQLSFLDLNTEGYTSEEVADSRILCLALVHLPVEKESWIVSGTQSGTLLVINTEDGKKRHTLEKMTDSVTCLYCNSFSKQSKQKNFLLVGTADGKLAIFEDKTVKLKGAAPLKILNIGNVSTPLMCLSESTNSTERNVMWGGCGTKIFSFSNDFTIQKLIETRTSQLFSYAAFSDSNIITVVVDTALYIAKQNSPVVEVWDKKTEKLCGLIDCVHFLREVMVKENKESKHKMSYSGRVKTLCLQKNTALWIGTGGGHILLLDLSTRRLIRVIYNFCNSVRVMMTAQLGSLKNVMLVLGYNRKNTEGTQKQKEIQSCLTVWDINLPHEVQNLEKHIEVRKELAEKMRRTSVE

O[C@H]1COC[C@H]1N1CC[C@@H](c2cc3nc(Nc4cnn([C@@H]5CC5(F)F)c4Cl)ncc3cc2Cl)[C@H](F)C1
Papp A→B at 3 h, up to 1 µM (rat Mdr1a (P-gp)): 30 ×10⁻⁶ cm/s
CLint scaled at 0.3 µM [1]: 248 mL/min/kg
MRT [2]: 3.9 h
efflux ratio at 3 h, up to 1 µM (mouse Bcrp [3]): 3.8
Activity (Salmonella typhimurium): Non-Toxic
fIC50 [4]: 1.9 nM
CL [5]: 445 mL/min/kg
Activity [6]: Toxic
Kp uu at 96 h [7]: 0.67
Activity [8]: Non-Toxic
Activity [9]: Non-Toxic
Activity [10]: Toxic
Activity [11]: Non-Toxic
Activity [12]: Non-Toxic
Papp at 3 h, up to 1 µM (mouse Bcrp [13]): 28 ×10⁻⁶ cm/s
fold induction at 96 h (CYP1A1): 3
fold induction at 96 h (GSTA5): 5
inhibition in vivo at 1 mg/kg [14]: 7%
